Experiments:
Type in all cases: cell-based, human
[1] = system: CD4 T cells in PBMC from melanoma patients; test: PBMC from melanoma patients stimulated with MELOE-1, restimulated with peptides, CD4/IFN-γ and CD4/IL4 staining
Protocol: FIG. 2: (A) Percentages of cytokine producing CD4 T cells among positive microcultures. Fourteen days after PBMC stimulation with MELOE-1 whole polypeptide (2-46), microcultures were re-stimulated with each indicated peptide during 5 hours. IFN-γ (left panel) and IL4 (right panel) production was then assessed by a triple labeling IFN-γ-IL4-CD4. Results were analyzed with a non-parametric test (Kruskal-Wallis) followed by a Dunns post-test. (B) Frequency of microcultures containing CD4 T cells specific for MELOE-1 peptides (assessed by IFN-γ or IL4 intracellular staining after re-stimulation with the 3 indicated peptides). 576 microcultures (from 10 melanoma patients) were analyzed by a contingency table followed by a Fisher exact test.
PBMC from melanoma patients were stimulated with 10 μM of MELOE-1. After 14 days, the presence of CD4 T cells specific for the different regions of MELOE-1 was assessed by restimulating cells with MELOE-12-21, MELOE-111-30 and MELOE-122-46 peptides, followed by CD4/IFN-γ double staining for the detection of Th1 responses, and by CD4/IL4 double staining for Th2 responses. Between brackets is indicated the mean % of cytokine producing CD4 T cells, in positive microcultures.
(§1) PBMC from healthy donors or melanoma patients (2·10^5 cells/well) were cultured for 14 days with 10 μM of MELOE-1 whole antigen (46 amino acids) in RPMI medium supplemented with 8% HS, 50 IU/ml of rIL-2 (Chiron, France) and L-Glutamin, in 96-well multiplates. Micro cultures were then restimulated individually with each overlapping peptide (MELOE-12-21, MELOE-111-30, MELOE-118-37, MELOE-126-46 or MELOE-122-46 for melanoma patients) in the presence of 10 μg/mL brefeldin A for 5 hours and the percentage of CD4^+ specific T cells was assessed by TNF-α, IFN-γ or IL-4 intracellular staining A negative control without peptide was included in all experiments.
(§2) Lymphocytes were stimulated for 5 hours in the presence of brefeldin A (10 μg/mL) either with peptide alone (10 μM) in an autopresentation assay or with B-EBV or HLA-class II expressing melanoma cells pulsed 2 hours with the cognate peptide, at a ratio 1:2. In some experiments, blocking mAb against HLA-DP (clone B7.21 from Dr Charron, UMR940, Paris), HLA-DQ (clone SPVL3, Beckman Coulter) or HLA-DR (clone L243, BD Biosciences) were added at a concentration of 12.5 μg/ml. Cells were then stained with APC-conjugated anti-CD4 mAb, fixed with 4% paraformaldehyde, labeled with PE-conjugated anti-cytokine mAb and analyzed by flow cytometry.
In order to confirm the immunogenicity of each MELOE-1 regions in melanoma patients, we stimulated melanoma patients PBMC with the MELOE-1 whole protein, and tested the reactivity of stimulated lymphocytes towards the three most immunogenic regions: 2-21, 11-30, and 22-46. For this study, instead of challenging microcultures with the 18-37 peptide, that appeared poorly immunogenic, we extended the C-terminus region from 26-46 to 22-46, in order to also detect responses to our previously described HLA-DR11-restricted epitope (24-37). […] We tested the induction of CD4 specific responses from MELOE-1 stimulated PBMC of 10 melanoma patients. We documented CD4 responses specific for the central region of MELOE-1 (11-30) for 7/9 patients, whereas responses specific for MELOE-12-21 and MELOE-122-46 were respectively detected in 4/9 and 5/9 patients (Table III). These responses were mainly Th1 responses (IFN-g production) while less frequent Th2 responses specific for the three regions of MELOE-1 were detected in 3/9 patients for MELOE-12-21, 2/9 patients for MELOE-111-30 and 5/9 patients for MELOE-122-46 (Table III). […] Concerning Th2 responses, much less frequent, the C-term region appeared to induce more frequently the growth of IL-4 producing CD4 T cells than the two other regions (FIG. 2A). […]

[2] = system: CD4 T cells in PBMC from healthy donors; test: PBMC from healthy donors stimulated with MELOE-1, restimulated with overlapping peptides, CD4/TNF-α staining; conditions: for healthy donors in whom CD4 responses against the region were detected: seven healthy donors, TNFα production
Protocol: FIG. 1: (A) Percentages of TNF-α producing CD4 T cells among positive microcultures. Fourteen days after PBMC stimulation with MELOE-1 whole polypeptide (2-46), microcultures were re-stimulated with each indicated peptide during 5 hours. TNF-α production was then assessed by a double labeling TNF-α-CD4. Results were analyzed with a non-parametric test (Kruskal-Wallis) followed by a Dunns post-test. (B) Frequency of microcultures containing CD4 T cells specific for MELOE-1 peptides (assessed by TNF-α intracellular staining after re-stimulation with the 4 indicated peptides). 624 microcultures (from 7 healthy donors) were analyzed by a contingency table followed by a Fisher exact test.
PBMC from healthy donors were stimulated with 10 μM of MELOE-1. After 14 days, the presence of CD4 T cells specific for the different regions of MELOE-1 was assessed by restimulating cells with MELOE-12-21, MELOE-111-30, MELOE-118-37 and MELOE-126-46 peptides, followed by CD4/TNF-α double staining and flow cytometry analysis. Between brackets is indicated the mean % of TNF-α producing CD4 T cells, in positive microcultures. NA: not available.
as §1, §2
Our purpose was to look for the existence of class II helper epitopes all along MELOE-1 sequence (SEQ ID NO: 20), in order to document the immunogenicity of the different regions of this melanoma antigen. We stimulated 2·10^7 PBMC from seven healthy donors with MELOE-1 whole antigen and tested, after a 14-day culture period the presence of CD4 T cells specific for each region of the protein. Microcultures were screened for TNFα production by CD4+ T cells, after restimulation with four MELOE-1 derived overlapping peptides (Table I), in an autopresentation assay. […] On the contrary, the central region 18-37, containing an already described DR11-restricted epitope (24-37) located just at the end of this 20-mer peptide (Rogel et al., 2011), induced specific responses in microcultures deriving from only 2/7 donors (HD9 and HD17, both expressing the DR11 element). In these two donors, we detected 6 and 7% of positive microcultures, containing between 0.6 to 3.7% of TNFα producing CD4 T cells.

[3] = system: MELOE-126-46 specific CD4 T cell clone (4E2-DQβ1*0201); test: Peptide stimulation of CD4 T cell clone 4E2, intracellular cytokine staining
Protocol: (§3) FIG. 5: Minimal peptides recognized by MELOE-1 specific CD4 T cell clones. MELOE-1 specific CD4 T cell clones were incubated with various concentrations of the indicated peptides during 5 hours in presence of Brefeldin A. TNF-α production was assessed by intracellular labeling with an anti-TNF-α specific antibody. The core peptide sequence is indicated in bold on each figure panel, and black circles illustrate the best fitting peptide.
as §2
(§4) We also documented the T helper profile of each T cell clone, by stimulating the CD4 T cell clones with the cognate peptide, and analyzing cytokine production. All the clones expressed Th1 cytokines (TNFα, IFNγ, IL2 and GM-CSF). On the contrary, these clones differ in their expression of Th2 cytokines. Indeed, the two DQ2 restricted T cell clones (9C12 and 4E2) and the DR1 restricted one (5F9) also strongly express two Th2 cytokines (IL4, and IL13), whereas the DR11-restricted T cell clone only weakly expressed IL4 (Table IV). None of the CD4 T cell expresses IL10 or IL5 at a significant level.
(§5) Three shorter peptides were better recognized by the DQ2-restricted 9C12 T cell clone, the shortest one being MELOE-17-19 (13-mer), recognized with an EC50 of 100 nM. The deletion of the two amino acids in C-term strongly reduces T cell clone recognition. […] Nonetheless all of these clones recognized a series of shortened peptides, thus we cannot formally assess that the shortest ones will be the exact peptides naturally presented on class II molecules.

[4] = system: MELOE-1 specific T cell clones; test: HLA restriction of MELOE-1 specific T cell clones (anti-HLA blocking antibodies, HLA-matched B-EBV cell lines); conditions: T cell clone 4E2 (from HD25)
Protocol: FIG. 3: HLA-restricting element of MELOE-1 specific T cell clones and reactivity against HLA-matched melanoma cell lines. The HLA restriction of MELOE-1 specific T cell clones was first assessed using anti-HLA blocking antibodies (upper panel). T cell clones were stimulated for 5 hours in the presence of brefeldin A (10 μg/mL) either with peptide alone (10 μM) in an autopresentation assay and in presence or not of blocking antibodies at a concentration of 12.5 μg/mL. HLA restriction was confirmed with HLA-matched B-EBV cell lines pulsed 2 hrs with the cognate peptide, at a ratio 1:2 (middle panel). Reactivity of each T cell clone against HLA-class II expressing melanoma cells was assessed, in presence or not of exogeneous peptide (lower panel). After 5 hours of stimulation, cells were then stained with APC-conjugated anti-CD4 mAb, fixed with 4% paraformaldehyde, labeled with PE-conjugated anti-TNF-α mAb and analyzed by flow cytometry.
as §2
In order to formally characterize the recognized epitopes, we derived CD4 T cell clones specific for each region of MELOE-1 by limiting dilution, from microcultures of healthy donors or melanoma patients, containing at least 0.5% of specific CD4 T cells. We succeeded to derive CD4 specific T cell clones from HD17, HD22, HD25 and Pt≠3 microcultures, which were reactive against MELOE-12-21 (HD22), MELOE-111-30 (HD17 and Pt≠3) and MELOE-126-46 (HD25). From each cloning experiment, we obtained between one and ten reactive CD4 T cell clones, that turned out to be the same clonotype after CDR3B sequencing (Table IV). A single CD4 T cell clone for each specificity was used for further experiments. The HLA-restriction was determined for each T cell clone, first by using HLA-class II blocking monoclonal antibodies (FIG. 3, upper panel), and further by testing the recognition of HLA-matched B-EBV cell lines loaded with each recognized long peptide (FIG. 3 middle panel). The two T cell clones named 9C12 and 4E2, derived from HD22 and HD25 and specific for MELOE-12-21 and MELOE-126-46 were restricted by the HLA-DQβ1*0202 and the DQβ1*0201 molecules respectively. […]

[5] = system: MELOE-111-30 specific CD4 T cell clone (5F9-DRβ1*0101); test: Peptide stimulation of CD4 T cell clone 5F9, intracellular cytokine staining; conditions: DRβ1*0101 restricted T cell clone (5F9)
Protocol: as §3, §2, §4, §5

[6] = clone 4E2, cognate peptide 10 μM, 5 hours

## AACPPWHPSERISSTLNDECWPASL [MELOE-122-46]
[1]; Pt ≠ 1
  mean % of cytokine producing CD4 T cells, in positive microcultures (IFN-γ, Th1): (4.8% ± 7.2)
  mean % of cytokine producing CD4 T cells, in positive microcultures (IL4, Th2): (0.8% ± 0.3)
[1]; Pt ≠ 2
  mean % of cytokine producing CD4 T cells, in positive microcultures (IFN-γ, Th1): (0.6% ± 0.02)
[1]; Pt ≠ 3
  mean % of cytokine producing CD4 T cells, in positive microcultures (IFN-γ, Th1): (1.9% ± 1.3)
[1]; Pt ≠ 5
  mean % of cytokine producing CD4 T cells, in positive microcultures (IL4, Th2): (0.8%)
[1]; Pt ≠ 7
  mean % of cytokine producing CD4 T cells, in positive microcultures (IFN-γ, Th1): (2.9% ± 3.5)
  mean % of cytokine producing CD4 T cells, in positive microcultures (IL4, Th2): (1.5% ± 0.7)
[1]; Pt ≠ 8
  mean % of cytokine producing CD4 T cells, in positive microcultures (IFN-γ, Th1): (0.5%)
  mean % of cytokine producing CD4 T cells, in positive microcultures (IL4, Th2): (0.6%)
[1]; Pt ≠ 9
  mean % of cytokine producing CD4 T cells, in positive microcultures (IL4, Th2): (0.7% ± 0.15)
[1]; of 576 tested microcultures, melanoma patients
  Th1 responses, share of tested microcultures: 9.6%
[1]; responding/tested patients
  melanoma patients with CD4 specific responses (mainly Th1, IFN-g production): 5/9
[1]; responding/tested patients, IL4
  melanoma patients with Th2 responses: 5/9

## PSEGAACPPWHPSERISSTL [MELOE-118-37]
[2]; donor HD17
  mean % of TNF-α producing CD4 T cells, in positive microcultures: (3% ± 0.7)
[2]
  healthy donors in whom CD4 responses against the region were detected: 2/7

## PWHPSERISSTLNDECWPASL [MELOE-126-46]
[3]; [6]
  Cytokine profile: GM-CSF: GM-CSF ^high
  Cytokine profile: IFN: IFN ^high
  Cytokine profile: IL2: IL2 ^high
  Cytokine profile: IL4: IL4 ^high
  Cytokine profile: IL5: IL5 ^low
  Cytokine profile: IL10: IL10 ^neg
  Cytokine profile: IL13: IL13 ^high
[3]; clone 4E2, cognate peptide 10 μM, 5 hours, autopresentation
  Cytokine profile: TNF: TNF ^high
[2]; donor HD22
  mean % of TNF-α producing CD4 T cells, in positive microcultures: (1% ± 0.1)
[2]
  healthy donors in whom CD4 responses against the region were detected: 4 out of 7
[4]
  HLA-restricting element of the peptide-specific T cell clone: DQβ1*0201

## RISSTLNDECWPA [Peptide 32-44]
[3]; T cell clone 4E2, compared with 31-44
  recognition by T cell clone (TNF-α production): recognized to a lower extent

## SREQFLPSEGAAC [MELOE-112-24]
[5]
  recognition by T cell clone (TNF-α production): optimal shorter peptides

## TSREQFLPSEGAA [MELOE-111-23]
[5]
  recognition by T cell clone (TNF-α production): optimal shorter peptides
